Measured values as given in patent US10066025B2, “Compositions and methods for detecting, treating and preventing diseases and disorders” (YALE UNIVERSITY, priority 2012, dated 2018).
Entries after “also recorded” stand apart in the source; their conditions may differ.

Experiments:
[1] = test system: renal ischemia/reperfusion (IR) injury; experiment: Murine model of renal ischemia/reperfusion (IR) injury, plasma creatinine; type: in vivo, mice; conditions: renalase peptides 100 μg subcutaneous 10 to 30 min prior to 30 min renal ischemia, WT mice
Protocol: Adult male renalase deficient (KO) mice (Wu et al., 2011, Kidney Int 79: 853-860) on a C57BL/6 background were subjected to renal ischemia/reperfusion (IR) as described (Kim et al., 2009, Kidney Int 75: 809-823; Kim et al., 2010, Am J Physiol Renal Physiol 299(2):F347-58). Renalase KO or wild type (WT) mice (C57BL/6 from Harlan Labs, Indianapolis, Ind.) were subjected to sham-operation or to 20 min. (moderate) or 30 min. (severe) renal ischemia and 24 hr. reperfusion. To test the renal protective effects of recombinant human renalase, mice were pretreated with saline (vehicle) or with recombinant renalase (0.5, 1.5 or 4.5 mg/kg, s.c.) 10 min. prior to 30 min. renal ischemia. It was also tested whether renalase treatment after completion of renal ischemia also provides renal protection. Separate cohorts of mice were treated with saline or with renalase (1.5 mg/kg, s.c.) 30 min. or 60 min. after reperfusion of the ischemic kidney. To test whether blocking alpha receptors would mimic the renal protective effects of human recombinant renalase administration, phentolamine (an alpha receptor antagonist, 5 mg/kg, i.p.) was given in some mice 15 min. before renal ischemia.
Plasma creatinine was measured as described with an enzymatic creatinine reagent kit according to the manufacturer's instructions (Thermo Fisher Scientific, Waltham, Mass.) (Slot, 1965, J Clin Lab Invest 17: 381-387).
After animal care and use committee approval, adult male C57BL/6 (Harlan Labs, Indianapolis, Ind.) were subjected to sham-operation or to 30 minutes of renal ischemia followed by 24 hrs of reperfusion as previously described (Lee et al., 2004, American journal of physiology. Renal physiology 286:F298-306). To test the renal protective effects of renalase peptides (RP-220, RP-H220 and RP-224), mice were pretreated with saline (vehicle) or with renalase peptides (100 μg subcutaneous) 10 to 30 minutes prior to renal ischemia.
Blood was collected from mice anesthetized with isoflurane via cardiac puncture into a heparinized syringe and was subsequently centrifuged to separate plasma. Samples were submitted to the Yale O'Brien Kidney Center for measurement of BUN and creatinine. Plasma creatinine was measured either by an enzymatic creatinine reagent kit according to the manufacturer's instructions (Thermo Fisher Scientific, Waltham, Mass.) or by HPLC. These methods of creatinine measurement largely eliminate the interferences from mouse plasma chromagens, known to occur with the Jaffe method.

cisplatin-mediated AKI = experiment: Murine model of cisplatin AKI; type: in vivo, mice; conditions: cisplatin + peptide; Sham 0.05±0.002, cisplatin 0.177±0.02; n=3
Protocol: The efficacy of recombinant renalase in treating cisplatin-induced AKI was investigated, and the mechanisms that mediate its protective action were assessed. Cisplatin (20 mg/kg) was administered by intra-peritoneal injection to either WT or renalase KO mice. The mice were sacrificed 3 days later. Blood was collected for BUN and creatinine measurements, and kidneys harvested for histologic examination, immunofluorescence (IF), and western blotting (WB). One renal pathologist, masked to the identity of the study animal, reviewed each kidney specimen. Pathologic features were scored using an ordinal rating scale (0-4; 0=none; 1=<25%, 2=26-50%; 3=51-75%; 4=76-100%) for the presence of tubular necrosis. Morphometry of renal cortex and medulla was performed using point counting technique. Points falling on injured tubules, were counted and the percentage of lesion area was calculated as percentage of total points counted
Cisplatin (15-20 mg/kg) was administered by intraperitoneal injection (IP) to either WT or renalase KO mice under brief isoflurane anesthesia. The animals were sacrificed 3 days later. […] Pathologic features were scored using an ordinal rating scale (0-4; 0=none; 1=<25%, 2=26-50%; 3=51-75%; 4=76-100%) for the presence of tubular necrosis. […] Points falling on injured tubules were counted, and the percentage of lesion area was calculated as percentage of total points counted. […]

RP H220: histidine tagged RP-220, SEQ ID NO: 4, HHHHHHCIRFVSIDNKKRNIESSEIG (listed as Homo sapiens)
protection against ischemic AKI (renal injury, plasma creatinine at 24 hr) [1]: protected against ischemia
protection against ischemic AKI (renal injury, plasma creatinine at 24 hr) ([1]; listed as RP-H220): reduced renal injury; also recorded: more effective than RP-220; also recorded: ameliorated the renal ischemic injury
creatinine measured by HPLC (cisplatin-mediated AKI): 0.085±0.007
